# From US10238670B2, “9-aminomethyl minocycline compounds and methods of use thereof in urinary tract infection (UTI) treatment” (Paratek Pharmaceuticals, Inc., priority 2016, dated 2019)
# Like-named read-outs stand apart in the source and are kept apart here.
# Assay: Phase 1b study in female adults with cystitis, plasma PK
# Type: in vivo, human
# Conditions: for Cmax / AUC(0-t) / Tmax / AUC(0-inf) / half-life / concentration at 5 day: plasma
# Experimental: According to the study design, a randomized (1:1:1), open-label, parallel designed Phase 1b study comparing 3 dosing regimens of Compound 1 (9-[(2,2-dimethyl-propyl amino)-methyl-minocycline) in the treatment of female adults with cystitis was conducted. About 31 female patients with uncomplicated urinary tract infection (cystitis) who met inclusion and exclusion criteria were enrolled at 2-4 U.S. treatment centers. All enrolled subjects participated in the study for approximately 5-6 weeks. Following Screening of up to 48 hrs, eligible subjects were randomly assigned to receive one of 3 dosing regimens of Compound 1 treatment as shown below. Subjects in all treatment groups were domiciled for a 5-day treatment period. Details of the study are further described below.
# Subjects were randomized (1:1:1) to one of the following treatment arms: • 1. Group 1: IV load, p.o. daily (200 mg Compound 1 IV every 24 hours (q24h) for 1 dose, followed by 300 mg p.o. q24h for a total of 5 days); • 2. Group 2: p.o. load, p.o. daily (300 mg Compound 1 p.o. every 12 hours (q12h) for 2 doses, followed by 300 mg p.o. q24h for a total of 5 days); • 3. Group 3: high p.o. load, high p.o. daily (450 mg Compound 1 p.o. q12h for 2 doses, followed by 450 mg p.o. q24h for a total of 5 days).
# Blood samples were collected and analyzed for Compound 1 concentration at the following times. Pre-dose blood PK evaluations were based on blood samples collected within 10 min of each start (e.g., t=0 h dose for Day 1, t=24 h dose for Day 2, etc.). • Day 1: Pre-dose, and 0.75, 1, 2, 3, 4, 6, 8 and 12 hours after the t=0 h dose (12 h sample before the t=12 h dose for Groups 2 and 3); • Day 2: prior to the t=24 h dose; • Day 3: prior to the t=48 h dose; • Day 4: prior to the t=72 h dose; • Day 5: Pre-dose, and 0.5, 1, 2, 3, 4, 6, 8 and 12 hours after the t=96 h dose • Day 6: at t=120 h (24 hours after the t=96 h dose on Day 5)
# Following the final oral doses on Day 5 the Compound 1 plasma concentration-time data for Groups 1, 2 and 3 were used to determine Cmax, Tmax, AUC24h, AUCt. Trough plasma concentrations (Ctrough) following each dose (Days 2 to 6) were also determined.
# Blood samples for PK are collected at the time points specified below. • Day 1: Predose, and 0.75, 1, 2, 3, 4, 6, 8 and 12 hours after the t=0 h dose (12 h sample before the t=12 h dose for Groups 2 and 3); • Day 2: prior to the t=24 h dose; • Day 3: prior to the t=48 h dose; • Day 4: prior to the t=72 h dose; • Day 5: Predose, and 0.5, 1, 2, 3, 4, 6, 8 and 12 hours after the t=96 h dose • Day 6: at t=120 h (24 hours after the t=96 h dose on Day 5)
# Blood was collected either by fresh venipuncture or via a cannula used solely for that purpose. The dates and times for all doses of test article and PK sample collections were recorded. For intravenously administered doses of test article, the start and stop times for each infusion were recorded. Immediately after the sample was collected, the tube was gently inverted 5 to 8 times to thoroughly mix the anticoagulant and then placed upright in a cryoblock or test tube rack surrounded by ice until centrifugation. Samples were centrifuged at 1500×g for 10 minutes at approximately 4° C. within 30 minutes of collection. The resultant plasma was divided into 2 equal aliquots, placed in individual cryovials, and immediately frozen at −20° C. or colder within 1 hour of collection. The samples were kept frozen at −20° C. or colder pending shipment to the bioanalytical laboratory.
# The Compound 1 plasma concentration data was listed and summarized by time point and treatment group. The following PK parameters were estimated from the Compound 1 plasma concentration-time data: […]
# [1] = Day 1, 300 mg po (n = 10), mean
# [2] = Day 5, 300 mg po (n = 10), mean
smiles,measurement,setting,value
"CN(C)c1cc(CNCC(C)(C)C)c(O)c2c1C[C@H]1C[C@H]3[C@H](N(C)C)C(O)=C(C(N)=O)C(=O)[C@@]3(O)C(O)=C1C2=O [Compound 1, 9-[(2,2-dimethyl-propylamino)-methyl]-minocycline]",AUC0-12,[1],6.26 µg·h/mL
same,Cmax,[1],880 ng/mL
same,Cmin,"Day 5, 200 mg IV, 300 mg po (n = 11), mean",0.29 µg/mL
same,AUC0-24,[2],13.50 µg·h/mL
same,Cmin,[2],0.32 µg/mL
same,Cmin,"Day 5, 450 mg po (n = 10), mean",0.48 µg/mL
same,AUC(0-t),"female, human, intravenous, 200 mg, Day 1, 200 mg IV, 300 mg po (n = 11), mean, read-out: AUC0-24",16000 ng·h/mL
same,Tmax,"female, human, intravenous, 200 mg, Day 1, 200 mg IV, 300 mg po (n = 11), median, read-out: tmax",0.75 h
same,Cmax,"female, human, intravenous, 200 mg, Day 1, 200 mg IV, 300 mg po (n = 11), mean, read-out: Cmax",2160 ng/mL
same,AUC(0-t),"female, human, intravenous, 200 mg, Day 1, IV_PO300, read-out: AUC(0-24 hrs), Geo. Mean",15600 ng·h/mL
same,AUC(0-t),"female, human, intravenous, 200 mg, Day 1, IV_PO300, read-out: AUC(0-24 hrs), Mean",16000 ng·h/mL
same,AUC(0-t),"female, human, intravenous, 200 mg, Day 1, IV_PO300, read-out: AUC(0-24 hrs), Median",14800 ng·h/mL
same,AUC(0-inf),"female, human, intravenous, 200 mg, Day 1, IV_PO300, read-out: AUC(0-inf), Geo. Mean",19700 ng·h/mL
same,AUC(0-inf),"female, human, intravenous, 200 mg, Day 1, IV_PO300, read-out: AUC(0-inf), Mean",19900 ng·h/mL
same,AUC(0-inf),"female, human, intravenous, 200 mg, Day 1, IV_PO300, read-out: AUC(0-inf), Median",19300 ng·h/mL
same,Cmax,"female, human, intravenous, 200 mg, Day 1, IV_PO300, read-out: Cmax, Geo. Mean",1960 ng/mL
same,Cmax,"female, human, intravenous, 200 mg, Day 1, IV_PO300, read-out: Cmax, Mean",2160 ng/mL
same,Cmax,"female, human, intravenous, 200 mg, Day 1, IV_PO300, read-out: Cmax, Median",1850 ng/mL
same,Tmax,"female, human, intravenous, 200 mg, Day 1, IV_PO300, read-out: Tmax, Geo. Mean",0.869 h
same,Tmax,"female, human, intravenous, 200 mg, Day 1, IV_PO300, read-out: Tmax, Mean",0.897 h
same,Tmax,"female, human, intravenous, 200 mg, Day 1, IV_PO300, read-out: Tmax, Median",0.75 h
same,half-life,"female, human, intravenous, 200 mg, Day 1, IV_PO300, read-out: T½, Geo. Mean (converted)",677 min
same,half-life,"female, human, intravenous, 200 mg, Day 1, IV_PO300, read-out: T½, Mean (converted)",683 min
same,half-life,"female, human, intravenous, 200 mg, Day 1, IV_PO300, read-out: T½, Median (converted)",688 min
same,AUC(0-t),"female, human, oral, 300 mg, Day 5, 200 mg IV, 300 mg po (n = 11), mean, read-out: AUC0-24",13200 ng·h/mL
same,Cmax,"female, human, oral, 300 mg, Day 5, 200 mg IV, 300 mg po (n = 11), mean, read-out: Cmax",1120 ng/mL
same,Tmax,"female, human, oral, 300 mg, Day 5, 200 mg IV, 300 mg po (n = 11), median, read-out: tmax",3 h
same,AUC(0-t),"female, human, oral, 300 mg, Day 1, PO300, read-out: AUC(0-12 hrs), Geo. Mean",6150 ng·h/mL
same,AUC(0-t),"female, human, oral, 300 mg, Day 1, PO300, read-out: AUC(0-12 hrs), Mean",6260 ng·h/mL
same,AUC(0-t),"female, human, oral, 300 mg, Day 1, PO300, read-out: AUC(0-12 hrs), Median",6520 ng·h/mL
same,Cmax,"female, human, oral, 300 mg, Day 1, PO300, read-out: Cmax, Geo. Mean",849 ng/mL
same,Cmax,"female, human, oral, 300 mg, Day 1, PO300, read-out: Cmax, Mean",877 ng/mL
same,Cmax,"female, human, oral, 300 mg, Day 1, PO300, read-out: Cmax, Median",916 ng/mL
same,Tmax,"female, human, oral, 300 mg, Day 1, PO300, read-out: Tmax, Geo. Mean",2.96 h
same,Tmax,"female, human, oral, 300 mg, Day 1, PO300, read-out: Tmax, Mean",2.99 h
same,Tmax,"female, human, oral, 300 mg, Day 1, PO300, read-out: Tmax, Median",3 h
same,AUC(0-t),"female, human, oral, 300 mg, Day 5, IV_PO300, read-out: AUC(0-24 hrs), Geo. Mean",9550 ng·h/mL
same,AUC(0-t),"female, human, oral, 300 mg, Day 5, IV_PO300, read-out: AUC(0-24 hrs), Mean",13200 ng·h/mL
same,AUC(0-t),"female, human, oral, 300 mg, Day 5, IV_PO300, read-out: AUC(0-24 hrs), Median",15800 ng·h/mL
same,Cmax,"female, human, oral, 300 mg, Day 5, IV_PO300, read-out: Cmax, Geo. Mean",808 ng/mL
same,Cmax,"female, human, oral, 300 mg, Day 5, IV_PO300, read-out: Cmax, Mean",1120 ng/mL
same,Cmax,"female, human, oral, 300 mg, Day 5, IV_PO300, read-out: Cmax, Median",1300 ng/mL
same,concentration at 5 day,"female, human, oral, 300 mg, Day 5, IV_PO300, read-out: Ctrough, Geo. Mean",214 ng/mL
same,concentration at 5 day,"female, human, oral, 300 mg, Day 5, IV_PO300, read-out: Ctrough, Mean",292 ng/mL
same,concentration at 5 day,"female, human, oral, 300 mg, Day 5, IV_PO300, read-out: Ctrough, Median",378 ng/mL
same,Tmax,"female, human, oral, 300 mg, Day 5, IV_PO300, read-out: Tmax, Geo. Mean",2.83 h
same,Tmax,"female, human, oral, 300 mg, Day 5, IV_PO300, read-out: Tmax, Mean",2.6 h
same,Tmax,"female, human, oral, 300 mg, Day 5, IV_PO300, read-out: Tmax, Median",3 h
same,half-life,"female, human, oral, 300 mg, Day 5, IV_PO300, read-out: T½, Geo. Mean (converted)",791 min
